Source: article PMC12024264, “Frog Skin Peptides Hylin-a1, AR-23, and RV-23: Promising Tools Against Carbapenem-Resistant Escherichia coli and Klebsiella pneumoniae Infections” (Antibiotics, 2025)
Where no end group is shown, it is not given here.

Key:
[1] = tested on: E. coli; experiment: Checkerboard assay with meropenem; settings: for MIC of peptide in combination with meropenem: checkerboard, 20 h, OD600
[2] = tested on: HaCaT cells; experiment: MTT cytotoxicity assay on HaCaT keratinocytes; format: cell-based, human; settings: for 50% cytotoxic concentration (CC50): HaCaT keratinocytes, 20 h exposure, 0.39 to 100 μM; for CC50 obtained by the fitting of the curves: HaCaT, 20 h, Figure 1
Description: To evaluate their safety profile, cytotoxicity assays were performed on HaCaT keratinocytes. Cells were exposed for 20 h to peptides at doses ranging from 0.39 to 100 μM.
Figure 1 Dose–response curves for the AMPs against HaCaT cell line and CC50 (reported in μM), HillSlope, and R^2 values were obtained by the fitting of the curves. The viability effect of Hylin-a1, AR-23, and RV-23 was analyzed on HaCaT cells. The cell monolayer was treated with serial dilutions of peptides for 20 h. Untreated cells were used as a positive control, while dimethyl sulfoxide (DMSO) was used as a negative control. HillSlope: The measure of the steepness of the dose–response curve. […] R^2 (coefficient of determination) indicates how well the model fits the data. Ranges from 0 to 1, with 1 representing a perfect fit.
The cytotoxic effect of peptides was examined using 3-(4,5 dimethylthiazol-2-yl)-2,5-diphenyltetrazolium bromide (MTT), as previously described. Cell viability, expressed as a percentage, was calculated in relation to the viability of untreated cells (+). DMSO was used as negative control (−). The human keratinocyte cell line HaCaT (Cell Lines Service, CLS-, Eppelheim, Germany) was used as a cellular model to evaluate the peptides’ cytotoxicity. HaCaT cells were grown in Dulbecco’s Modified Eagle Medium (DMEM) with 4.5 g/L of glucose (Microtech, Naples, Italy) supplemented with an antibiotic solution 100× (Himedia, Naples, Italy) and 10% Fetal Bovine Serum (FBS, Microtech).

[3] = Serum stability assay; format: in vitro ADME, bovine; settings: 10% FBS
Description: The susceptibility of Hylin-a1, AR-23, and RV-23 to proteolytic degradation in serum was evaluated, following the protocol reported in Section 4.3.
Figure 6 AMP stability in serum. Stability profiles of Hylin-a1 (red line), AR-23 (gray line), and RV-23 (black line) are reported. All stability tests were performed at least in triplicate. LC-MS analyses were performed using an Agilent 1260 Infinity II LC/MSD system (Milan, Italy). The percentages of intact peptides after different time points of incubation in serum were determined by integrating RP-HPLC peaks from the chromatograms recorded at a wavelength of 210 nm. The test was performed in triplicate, and the data are presented as mean values, with error bars representing standard deviations.
Peptides were mixed with 10% FBS at a final concentration of 0.2 mg/mL and incubated in a water bath at 37 °C. […] Then, the mixture was diluted with 0.1% TFA in H2O (1:1). Samples were characterized using LC-MS on a C18 Aeris Peptide column (100 × 2.1 mm), applying a linear gradient from 5 to 80% solvent B (0.1% TFA in CH3CN) over solvent A (0.1% TFA in water) in 15 min at a flow rate of 0.2 mL/min. All stability tests were performed at least in triplicate. LC-MS analyses were performed using an Agilent 1260 Infinity II LC/MSD system (Milan, Italy).

[4] = tested on: E. coli ATCC 25992; experiment: Time-kill assay; format: cell-based, Escherichia coli
Description: This in vitro method allows for assessing the kinetics of bacterial killing by peptides over time. […] Specifically, at each time point, 50 μL aliquots of the bacterial–peptide mixtures were collected and plated on agar (see Materials and Methods for further details). Following incubation, colony-forming units (CFUs) were counted and the killing rate of each peptide concentration was calculated (Figure 2).
Figure 2 Evaluation of the kinetic-killing effect of Hylin-a1, AR-23, and RV-23 against K. pneumoniae and E. coli. […] Untreated bacteria was used as control negative (CTR- in black).
Using the same conditions as the MIC assay, a time–kill test was performed to monitor bacterial growth over time. […] Finally, bacterial colonies were counted, and the CFU/mL was calculated.

[5] = tested on: E. coli 3140; settings: carbapenemase OXA-48 (class D), urine; microdilution, 37 °C, 20 h; N/D = no antibacterial activity detected
Description: (§1) Each strain was grown in Mueller Hinton Broth (MH Broth), and 5 × 10^5 CFU/mL was used to evaluate antibacterial activity. Clinical carbapenem-resistant K. pneumoniae and E. coli isolates were collected at the AOU of Virology and Microbiology of the University of Campania “Luigi Vanvitelli”.
(§2) The antimicrobial activity of Hylin-a1, AR-23, and RV-23 was investigated using a microdilution assay as reported by the National Committee on Clinical Laboratory Standards (NCCLS) guidelines against a broad spectrum of Gram-negative bacteria. […] In 96-well, the standardized bacterial inoculum (5 × 10^5 colony forming units, CFU/mL) was inoculated together with AMPs and incubated at 37 °C for 20 h. After the time of incubation, optical density (OD) was measured at TECAN, and data were expressed as a percentage of inhibition. In addition to assessing the MIC values, the bactericidal effect was also studied as reported elsewhere.

[6] = tested on: E. coli 2267; settings: carbapenemase NDM (class B), rectal swab, N/D = no antibacterial activity detected; for MIC: microdilution, 37 °C, 20 h
Description: as §1, §2

[7] = tested on: K. pneumoniae 1746; settings: carbapenemase VIM (class B), rectal swab; microdilution, 37 °C, 20 h; N/D = no antibacterial activity detected
Description: as §1, §2

[8] = tested on: K. pneumoniae 1711; settings: carbapenemase KPC (class A), rectal swab, N/D = no antibacterial activity detected; for MIC: microdilution, 37 °C, 20 h
Description: as §1, §2

[9] = tested on: K. pneumoniae 1745; settings: carbapenemase KPC (class A), ulcer, N/D = no antibacterial activity detected; for MIC: microdilution, 37 °C, 20 h
Description: as §1, §2

[10] = tested on: E. coli 716; settings: carbapenemases IMP1, VIM, NDM (class B), urine, N/D = no antibacterial activity detected; for MIC: microdilution, 37 °C, 20 h
Description: as §1, §2

[11] = tested on: E. coli 1376; settings: carbapenemase NDM (class B), rectal swab, N/D = no antibacterial activity detected; for MIC: microdilution, 37 °C, 20 h
Description: as §1, §2

[12] = tested on: E. coli 1441; settings: carbapenemase KPC (class A), rectal swab, N/D = no antibacterial activity detected; for MIC: microdilution, 37 °C, 20 h
Description: as §1, §2

| Substance | MIC of peptide in combination with meropenem [1] [µM] | 50% cytotoxic concentration (CC50) [2] [µM] | CC50 obtained by the fitting of the curves [2] [µM] | MIC [5] [µM] | MBC [6] [µM] | MIC [6] [µM] | MIC [7] [µM] | MBC [8] [µM] | MIC [8] [µM] | MBC [9] [µM] | MIC [9] [µM] | MIC [10] [µM] | MIC [11] [µM] | MIC [12] [µM] | also measured |
| --- | --- | --- | --- | --- | --- | --- | --- | --- | --- | --- | --- | --- | --- | --- | --- |
| IFGAILPLALGALKNLIK-NH2 [Hylin-a1] | 3.125 | 100 | 102.6 | 50 | 50 | 25 | 25 | 50 | 25 | 50 | 50 | 25 | 25 | 50 | combinatory effect of peptide and meropenem ([1]; interpretation of FICI by Table 4): partial synergism; remaining at 16 h ([3]; serum, after 16 h, 0.2 mg/mL, 37 °C, RP-HPLC peaks at 210 nm, mean of triplicate, read-out: intact peptide remaining in solution): 60%; bacterial killing in time-kill assay [4]: kills bacteria |
| RIGVLLARLPKLFSLFKLMGKKV-NH2 [RV-23] | 6.25 | 100 | 101.8 | 25 | 12.5 | 12.5 | 12.5 | 12.5 | 12.5 | 25 | 12.5 | 25 | 6.25 | 6.25 | percentage of intact fragments, almost constant up to 24 h ([3]; 0.2 mg/mL, 37 °C, RP-HPLC peaks at 210 nm, mean of triplicate, after the first 2 h up to 24 h): around 30%; half-life ([3]; serum, peptide 0.2 mg/mL, 37 °C water bath, ethanol precipitation, LC-MS, RP-HPLC peak integration at 210 nm, at least triplicate): < 2 h; time to significant reduction in bacterial viability / bactericidal effect [4]: ≤ 2 h; MBC [10]: 25 µM; MBC [11]: 6.25 µM; MBC [12]: 12.5 µM |
